This is an account of results in US12122774B2, “Compounds as MYT1 inhibitors” (WIGEN BIOMEDICINE TECHNOLOGY (SHANGHAI) CO., LTD., priority 2022, dated 2024).

≈ marks a conversion by molar mass, not a printed value.

The subject of data set [1] is MIA PaCa-2 cells. In words: In vitro anti-proliferative activity against MIA PaCa-2 cells (compound alone). It is filed as cell-based. As to conditions: intracellular ATP content. As for the experimental part: MIA PaCa-2 cells were seeded on a 384-well plate at 3000 cells/well. After overnight adherence culture, DMSO or the compounds serially diluted 1:5 from 10 µM were added. The viability was assessed 72 h after dosing by measuring the intracellular ATP content. The inhibition percentage of viable cells by the compounds was calculated by comparing with the DMSO group, and the IC50 value was calculated.

Data set [2] has as its system MIA PaCa-2 cells. In words: In vitro anti-proliferative activity in combination with gemcitabine against MIA PaCa-2 cells. In kind it is cell-based. The settings on record: read-out: Anti-proliferative activity against MIA PaCa-2 cells (20 nM gemcitabine) IC50; with 20 nM gemcitabine, 72 h, intracellular ATP content. As to the method: MIA PaCa-2 cells were seeded on a 384-well plate at 3000 cells/well, and 20 nM gemcitabine was added. After overnight adherence culture, DMSO or the compounds serially diluted 1:5 from 1000 nM were added. The viability was assessed 72 h after dosing by measuring the intracellular ATP content. The inhibition percentage of viable cells by the compounds was calculated by comparing with the DMSO group, and the IC50 value was calculated.

Data set [3] relates to MDCK cells stably transduced with MDR1 (MDCK-MDR1). In words: In vitro permeability experiment, MDCK-MDR1. The settings on record: 5 μM, 90 min. As to the method: (§1) In vitro passive permeability or the ability to serve as a P-glycoprotein (P-gp) transport substrate was tested using MDCK cells (MDCK wild type) or MDCK cells stably transduced with MDR1 (MDCK-MDR1), respectively. The permeability experiment was performed in duplicate in a transwell system at a single concentration (5 μM). The cells were incubated for 90 min. Apical-to-basolateral (A to B, A-B) transport and basolateral-to-apical (B to A, B-A) transport of the corresponding compound were determined, and the permeation rate (apparent permeability) (Papp×10^−6 cm/sec) and efflux ratio (Papp (B-A)/Papp (A-B)) of the test compound were calculated.

Data set [4] has as its system MDCK cells (MDCK wild type). Description: In vitro permeability experiment, MDCK wild type. The settings on record: MDCK-Wild type, 5 μM, 90 min. As to the method: as §1
The nature of data set [5]: In vivo pharmacokinetic experiment. More on the design: species or system CD-1 female mice. As to conditions: mice, oral administration 10 mg/kg. As to the method: CD-1 female mice aged 7 to 10 weeks were intravenously administered and orally administered at a dose of 2 mg/kg and 10 mg/kg, respectively. The mice were fasted for at least 12 h before the administration and given food 4 h after the administration, and they were given ad libitum access to water during the experiment. On the day of the experiment, animals in the intravenous group were administered the corresponding compound by single injection via the tail vein at an administration volume of 10 mL/kg. Animals in the oral group were administered the corresponding compound by single intragastric injection at an administration volume of 10 mL/kg. The animals were weighed before administration, and the administration volume was calculated according to the body weight. The sample collection time was 0.083 h (injection group), 0.167 h, 0.5 h, 1 h, 2 h, 4 h, 8 h, and 24 h. About 200 μL of whole blood was collected through the submaxillary venous plexus at each time point and used to prepare plasma for concentration determination by high-performance liquid chromatography-tandem mass spectrometry (LC-MS/MS). All animals were euthanized with CO2 anesthesia after the PK samples were collected at the last time point. The plasma concentrations were processed using a non-compartmental model of Phoenix WinNonlin™ version 8.3 (Certara) pharmacokinetic software, and the pharmacokinetic parameters were calculated using a linear-log trapezoidal method.

A short description of data set [6]: In vitro solubility experiment. It is filed as physicochemical. The settings on record: thermodynamic from solid. As for the experimental part:
(§2) Preparation of a standard curve: 10.01 mg of sample was weighed out and placed in a volumetric flask, and the volume was brought to 10 mL with acetonitrile/water (v/v, 9/1) to prepare 1.001 mg/mL of standard solution; the standard solution was then serially diluted to 0.5005 mg/mL, 0.1001 mg/mL, 0.05005 mg/mL, 0.01001 mg/mL, and 0.001001 mg/mL to generate the standard curve, and a linear equation was fitted by taking the peak area of the sample as a vertical axis and the concentration as a horizontal axis. Solubility and stability test: 15 mg of sample was added to 3 mL of vehicle (FaSSIF, FeSSIF, SGF, or water) to prepare a corresponding suspension at a target concentration of 5 mg/mL. The prepared suspension was stirred on a shaker (800 rpm) at 37° C. for 0.5 h, and the suspension was then filtered. The filtrate was diluted with a diluent to a corresponding multiple so that the peak height could not exceed the standard curve, and the solubility and purity were detected using HPLC.

Data set [7] is described as follows: In vitro stability experiment (HPLC purity of filtrate). It is filed as physicochemical. As for the experimental part: as §2
For the next data set, the target named is T1, Recombinant MYT1 protein (Homo sapiens, UniProt Q99640).
T1 sequence (Q99640 1-499): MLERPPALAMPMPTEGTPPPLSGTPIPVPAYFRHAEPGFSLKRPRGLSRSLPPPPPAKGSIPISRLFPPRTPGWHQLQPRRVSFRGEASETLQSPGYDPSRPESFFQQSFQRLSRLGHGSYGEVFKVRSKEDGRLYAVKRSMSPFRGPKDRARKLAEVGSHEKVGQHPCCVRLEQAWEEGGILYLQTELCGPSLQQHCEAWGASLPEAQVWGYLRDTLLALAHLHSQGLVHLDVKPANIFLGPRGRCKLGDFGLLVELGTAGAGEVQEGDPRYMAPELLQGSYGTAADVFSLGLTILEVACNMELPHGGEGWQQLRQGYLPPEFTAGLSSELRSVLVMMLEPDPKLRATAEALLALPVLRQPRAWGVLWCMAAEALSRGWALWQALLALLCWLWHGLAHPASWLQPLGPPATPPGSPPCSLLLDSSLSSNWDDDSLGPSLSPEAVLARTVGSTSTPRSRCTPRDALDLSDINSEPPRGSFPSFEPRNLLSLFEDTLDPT
Description: In vitro assay for inhibiting MYT1 kinase activity (ADP-GLO). It is filed as biochemical. As to conditions: 10 μM ATP, read-out: Inhibitory activity against recombinant protein MYT1 IC50. As for the experimental part:
Recombinant MYT1 protein and the compounds were pre-incubated at room temperature for 15 min, and 10 μM ATP was then added to start the reaction. The mixture was incubated at room temperature for another 60 min, and the ADP-GLO reagent from Promega was then added. The resulting mixture was incubated in the dark for 40 min, a detection solution was then added, and the mixture was incubated for another 45-60 min. The chemiluminescence was determined using ENVISION. The inhibition rate and IC50 were calculated compared to the DMSO group.
For orientation: In ADP-Glo the light output rises with the ADP produced.

Setting [8] is: FaSSIF, initial pH 6.52, 37° C.
The mark [9] stands for this setting: FeSSIF, initial pH 4.98, 37° C.

Broadly, the IC50 is the concentration needed to halve the response being measured. What is called half-life is how long it takes for the measured level to halve. Lower therefore signals fast loss. Usually solubility stands for how much of the substance goes into solution per volume. Higher therefore signals much dissolved substance.

As to `Cc1cc2c(C(N)=O)c(N)n(-c3c(C)c(O)cc(F)c3C)c2nc1C` [Compound 3], the IC50 is over 10 µM with MIA PaCa-2 cells [1] (Homo sapiens, MIA PaCa-2, 72 h) and at least 1.23 µM in the data set on MIA PaCa-2 cells [2].
Consider `COCCc1ccc(OCC(O)CNC(C)C)cc1` (stereo not drawn) [Metoprolol, reference compound], for which the “Papp Mean” value is recorded as 36.96 10^−6 cm · s^−1 in data set [3] (MDCK-MDR1, A-B); 20.14 10^−6 cm · s^−1 in data set [3] (MDCK-MDR1, B-A); 24.34 10^−6 cm · s^−1 in data set [4] (A-B); 21.29 10^−6 cm · s^−1 in data set [4] (B-A). Also, the “Papp Sample - 01” value is 37.59 10^−6 cm · s^−1 in data set [3] (MDCK-MDR1, A-B); 20.11 10^−6 cm · s^−1 in data set [3] (MDCK-MDR1, B-A); 26.48 10^−6 cm · s^−1 in data set [4] (A-B); 18.61 10^−6 cm · s^−1 in data set [4] (B-A). In addition, the “Papp Sample - 02” value in data set [3] (MDCK-MDR1, A-B) is 36.32 10^−6 cm · s^−1; in data set [3] (MDCK-MDR1, B-A) it was 20.17 10^−6 cm · s^−1; in data set [4] (A-B), 22.20 10^−6 cm · s^−1; in data set [4] (B-A) it was 23.97 10^−6 cm · s^−1.
With `Cc1cc2c(C(N)=O)c(N)n(-c3c(C)cc4cc[nH]c4c3C)c2nc1C` [Compound 153], the half-maximal inhibitory concentration (IC50) in the data set with MIA PaCa-2 cells [1] (Homo sapiens, MIA PaCa-2, 72 h) was over 10 µM.
As for `Cc1cc2c(C(N)=O)c(N)n(-c3c(C)ccc(O)c3C)c2nc1C` [RP-6306, reference compound], the IC50 in the data set on MIA PaCa-2 cells [1] (Homo sapiens, MIA PaCa-2, 72 h) is 9.22 µM. The compound also had a half-life in data set [5] (female, CD-1, mouse, plasma) of 1.58 h. Besides, in data set [5], the F % is 54.7%. In addition, the solubility at 0.5 h is 3860 µg/mL (≈ 11900 µM) in data set [6] (simulated gastric fluid, SGF, initial pH 1.2, 37° C.); 49 µg/mL (≈ 151 µM) in data set [6] (setting [8]); 182 µg/mL (≈ 561 µM) in data set [6] (setting [9]); 13 µg/mL (≈ 40.1 µM) in data set [6] (Water, initial pH 7.7, 37° C.). For the same compound, the “HPLC purity 0.5 h” value in data set [7] (setting [8]) is 58.88 %, 220 nm; in data set [7] (setting [9]), 74.51 %, 220 nm; in data set [7] (SGF, initial pH 1.2, 37° C.) it was 98.18 %, 220 nm; in data set [7] (Water, initial pH 7.7, 37° C.), 40.92 %, 220 nm.
Turning to `Cc1cc2c(C(N)=O)c(N)n(-c3c(C)c(O)cc4c3CCCC4)c2nc1C` [Compound 127], on Recombinant MYT1 protein, the IC50 is 0.2 to 0.5 µM.
Regarding `Cc1cc2c(C(N)=O)c(N)n(-c3c(C)cc4c(c3C)NCC4)c2nc1C` [Compound 150], the 50% inhibitory concentration (IC50) with MIA PaCa-2 cells [1] (Homo sapiens, MIA PaCa-2, 72 h) was over 10 µM.
As to `Cc1cc2c(C(N)=O)c(N)n(-c3c(C)ccc(O)c3C)c2nc1C#N` [Compound 12], the IC50 with MIA PaCa-2 cells [1] (Homo sapiens, MIA PaCa-2, 72 h) is over 10 µM.
Turning to `Cc1cc2c(C(N)=O)c(N)n(-c3c(C)c(O)cc4c3CCC4)c2nc1C` (atropisomer, axis not shown) [Compound 117], the IC50 in the data set on MIA PaCa-2 cells [1] (72 h) was over 10 µM.
For `Cc1cc2c(C(N)=O)c(N)n(-c3c(C)c(O)cc4ccccc34)c2nc1C` [Compound 128], the IC50 on Recombinant MYT1 protein is 0.2 to 0.5 µM.
For `Cc1cc2c(C(N)=O)c(N)n(-c3c(C)c(O)cc4c3CCC4)c2nc1C` [Compound 116], the half-maximal inhibitory concentration (IC50) in the data set with MIA PaCa-2 cells [1] (Homo sapiens, MIA PaCa-2, 72 h) was over 10 µM.
Take `Cc1cc2c(C(N)=O)c(N)n(-c3c(C)cc4c(c3C)NCC4)c2nc1C` [Compound 151]: in the data set on MIA PaCa-2 cells [1] (72 h), the IC50 is over 10 µM.
